Data published in patent US9387261B2, “Immunoconjugates targeting CD138 and uses thereof” (priority 2007, dated 2016).
Entries after “also recorded” stand apart in the source; their conditions may differ.

What was measured:
[1] = higher; cited from earlier work
[2] = tested on: MOLP-8 human multiple myeloma xenografts; assay: MOLP-8 xenograft mouse experiments A, Part I (single bolus i.v. injection); type: in vivo, CB.17 SCID mice; details: for effect on tumor growth compared with PBS-treated animals: single i.v. bolus, 250 μg/kg maytansinoid (nBT062 antibody […])
Description: In these mice, subcutaneous tumors were established (female CB.17 SCID mice) by inoculation with MOLP-8 cell suspensions. Treatment with a single bolus intravenous injection was conducted when tumor volumes reached an average 113 mm^3. Changes in tumor volume and body weight were monitored twice per week.
Female CB.17 SCID mice, five weeks old, were obtained from Charles River Laboratories.
MOLP-8, a human multiple myeloma cell line, was supplied from ATCC.
Each mouse was inoculated with 1×10^7 MOLP-8 cells subcutaneously into the area under the right shoulder. The total volume was 0.2 ml per mouse, in which the ratio of serum-free medium to matrigel (BD Bioscience, Bedford, Mass.) was 1/1 (v/v). Prior to treatment, the xenograft tumors were monitored daily and were allowed to become established.
Eleven days after tumor cell inoculation, 42 mice were selected based on tumor volumes and body weights. […] The forty-two mice were randomly divided into seven groups (A-G) of six animals each based on tumor volume.
Each of six mice in Group A received 200 μl of PBS as vehicle control.
All agents were intravenously administered as a single bolus injection through a lateral tail vein with a 1 ml syringe fitted with a 27 gauge, ½ inch needle.

MOLP-8 tumor xenografts = assay: Bulky MOLP-8 tumor model, Part II / xenograft mouse experiments B (TGD, log cell kill); type: in vivo, SCID mice; details: 450 μg/kg dose; mean time to reach 160 mm^3 minus control
Description: In a second set of experiments, MOLP-8 cells (1.5×10^7 cells per mouse), suspended in a 50:50 mixture of serum free media and matrigel were injected subcutaneously in the area under the right shoulder in 100 μl. Tumor volumes reached about 80 mm^3 at day 11 and the mean of the controls was about 750 mm^3 at day 25, post cell inoculation. […] Each mouse in the control group (n=6) received 0.2 ml of sterile PBS administered into the lateral tail vein (i.v.) in a bolus injection. All treatment doses were based on conjugated maytansinoid. […] Mice were randomized into eleven groups (n=6) by tumor volume using the LabCat Program. The tumor volumes ranged from 40.0 to 152.5 mm^3. The mice were dosed based on the individual body weight.
Tumor size was measured twice per week in three dimensions using the LabCat System (Tumor Measurement and Tracking, Innovative Programming Associated, Inc., Princeton, N.J.).
In this set of experiments, eighty-five mice were inoculated with MOLP-8 cells (1.5×10^7 cells/mouse) subcutaneously in the right shoulder. […] Sixty-six SCID mice bearing bulky MOLP-8 tumors with a mean tumor volume of about 80 mm^3 were randomized into eleven treatment groups (n=6).

Molecule: COc1cc2cc(c1Cl)N(C)C(=O)C[C@H](OC(=O)[C@H](C)N(C)C(C)=O)[C@]1(C)O[C@H]1[C@H](C)[C@@H]1C[C@@](O)(NC(=O)O1)[C@H](OC)/C=C/C=C(\C)C2 [maytansine]
- cytotoxicity relative to anti-cancer drugs affecting tubulin polymerization (Vinca alkaloids, taxol) [1]: 200-1000 fold

Molecule: B-B4-SPP-DM1: conjugate of the murine parental antibody B-B4 with DM1 via SPP linker
- effect on tumor growth compared with PBS-treated animals [2]: marked delay in tumor growth
- homogeneity of anti-tumor activity in individual mice ([2]; single i.v. dose 250 μg/kg, FIG. 9): more heterogeneously; also recorded: high binding variation

Molecule: nBT062
- effect on tumor growth compared with PBS-treated animals [2]: did not cause any significant inhibition of tumor growth
- effect on tumor growth compared with PBS-treated animals ([2]; listed as huBT062): no significant impact on tumor growth

Molecule: nBT062-DM1: nBT062 conjugate with DM1, linker not stated; TGD of 18 days matches nBT062-SMCC-DM1
- TGD (days), tumor growth delay (MOLP-8 tumor xenografts): 18 days
